This test addresses T1, E. coli DNA gyrase B (Escherichia coli, UniProt P0AES6).
T1 construct: gene gyrB
As to the kind of experiment: in vitro E. coli DNA gyrase enzyme inhibition assay (manufacturer's protocol). Type of test: biochemical.

`CC(=O)n1c(C)nc2c(C#N)c(-c3cn(-c4ccccc4)nc3-c3cc4ccccc4o3)c(C#N)c(=O)n21` [compound 10, 3-Acetyl-7-(3-(benzofuran-2-yl)-1-phenyl-1H-pyrazol-4-yl)-3,5-dihydro-2-methyl-5-oxo-[1,2,4]triazolo[1,5-a]pyridine-6,8-dicarbonitrile] registered an IC50 of 32.2 ± 0.1 µM.

As to `N#Cc1c(-c2cn(-c3ccccc3)nc2-c2cc3ccccc3o2)c(C#N)c(=O)n2c1NCCN2` [compound 9, 8-(3-(Benzofuran-2-yl)-1-phenyl-1H-pyrazol-4-yl)-6-oxo-1,3,4,6-tetrahydro-2H-pyrido[1,2-b][1,2,4]triazine-7,9-dicarbonitrile], the IC50 worked out at 9.8 ± 0.21 µM.

By IC50 is commonly meant the concentration needed to halve the response being measured. Read a low IC50 as greater potency.

(Values after publication PMC11676098, “New Benzofuran–Pyrazole-Based Compounds as Promising Antimicrobial Agents: Design, Synthesis, DNA Gyrase B Inhibition, and In Silico Studies” (Pharmaceuticals, 2024).)
